The term ΔTm denotes the shift of the melting midpoint relative to a reference.

SMILES strings stand for the structures.

The target in test [1] is Calcium/calmodulin-dependent protein kinase type II subunit gamma (Homo sapiens) (UniProt Q13555).
In test [2] the target is Serine/threonine-protein kinase Chk2 (Homo sapiens, UniProt O96017).
Test [3] has as its target Serine/threonine-protein kinase 10 (Homo sapiens) (UniProt O94804).
For test [4], the target named is Serine/threonine-protein kinase 26 (Homo sapiens) (UniProt Q9P289).
Serine/threonine-protein kinase 26 (Homo sapiens), sequence (Q9P289 2-416 limits assumed): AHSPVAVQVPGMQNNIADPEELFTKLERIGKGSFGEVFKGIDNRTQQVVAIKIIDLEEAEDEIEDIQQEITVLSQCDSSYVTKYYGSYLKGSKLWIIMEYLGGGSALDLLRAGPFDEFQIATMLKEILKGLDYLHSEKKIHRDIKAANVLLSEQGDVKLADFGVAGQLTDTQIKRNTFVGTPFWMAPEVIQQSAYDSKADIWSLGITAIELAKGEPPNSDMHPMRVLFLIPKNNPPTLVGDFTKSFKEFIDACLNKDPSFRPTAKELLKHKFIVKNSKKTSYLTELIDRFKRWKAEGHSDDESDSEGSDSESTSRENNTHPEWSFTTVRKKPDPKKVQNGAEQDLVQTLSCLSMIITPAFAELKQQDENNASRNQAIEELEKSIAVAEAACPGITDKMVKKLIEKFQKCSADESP
Test [5] addresses Mitogen-activated protein kinase 3 (Homo sapiens, UniProt P27361).
Test [6] concerns the target Serine/threonine-protein kinase RIO2 (Homo sapiens) (UniProt Q9BVS4).
Test [7] addresses T1, Serine/threonine-protein kinase VRK3 (Homo sapiens) (UniProt Q8IV63).
T1 sequence (whole entry): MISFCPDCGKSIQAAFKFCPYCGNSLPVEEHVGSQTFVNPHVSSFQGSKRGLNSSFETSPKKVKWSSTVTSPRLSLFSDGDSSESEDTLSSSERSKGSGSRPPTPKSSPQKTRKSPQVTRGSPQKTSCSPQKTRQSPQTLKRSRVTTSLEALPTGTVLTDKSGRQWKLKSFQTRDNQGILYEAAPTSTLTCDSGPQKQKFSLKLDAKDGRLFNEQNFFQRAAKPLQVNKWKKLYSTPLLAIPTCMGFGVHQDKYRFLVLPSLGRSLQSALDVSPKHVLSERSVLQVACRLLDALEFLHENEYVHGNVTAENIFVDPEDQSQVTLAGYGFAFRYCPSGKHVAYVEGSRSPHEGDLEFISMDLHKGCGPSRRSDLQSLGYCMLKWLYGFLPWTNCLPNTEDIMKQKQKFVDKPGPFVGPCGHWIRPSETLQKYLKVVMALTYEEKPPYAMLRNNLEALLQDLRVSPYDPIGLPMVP

The target in test [8] is T2, Calcium/calmodulin-dependent protein kinase type IV (Homo sapiens) (UniProt Q16566).
T2 sequence (whole entry): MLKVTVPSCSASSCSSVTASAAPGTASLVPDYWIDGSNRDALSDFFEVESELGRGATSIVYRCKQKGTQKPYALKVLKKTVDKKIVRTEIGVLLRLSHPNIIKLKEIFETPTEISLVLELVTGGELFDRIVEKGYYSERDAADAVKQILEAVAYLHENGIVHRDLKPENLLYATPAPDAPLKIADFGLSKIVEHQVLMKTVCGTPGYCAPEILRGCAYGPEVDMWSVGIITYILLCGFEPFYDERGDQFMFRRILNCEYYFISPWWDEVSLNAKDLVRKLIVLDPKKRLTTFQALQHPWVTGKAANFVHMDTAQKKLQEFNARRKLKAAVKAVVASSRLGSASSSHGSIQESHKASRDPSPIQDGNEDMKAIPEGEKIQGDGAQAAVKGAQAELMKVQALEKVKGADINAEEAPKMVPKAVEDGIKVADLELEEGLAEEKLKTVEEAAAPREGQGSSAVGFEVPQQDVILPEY

Test [9] deals with STE20-like serine/threonine-protein kinase (Homo sapiens) (UniProt Q9H2G2).
In test [10] the target is Serine/threonine-protein kinase pim-2 (Homo sapiens, UniProt Q9P1W9).
Serine/threonine-protein kinase pim-2, sequence (Q9P1W9 whole entry, looked up): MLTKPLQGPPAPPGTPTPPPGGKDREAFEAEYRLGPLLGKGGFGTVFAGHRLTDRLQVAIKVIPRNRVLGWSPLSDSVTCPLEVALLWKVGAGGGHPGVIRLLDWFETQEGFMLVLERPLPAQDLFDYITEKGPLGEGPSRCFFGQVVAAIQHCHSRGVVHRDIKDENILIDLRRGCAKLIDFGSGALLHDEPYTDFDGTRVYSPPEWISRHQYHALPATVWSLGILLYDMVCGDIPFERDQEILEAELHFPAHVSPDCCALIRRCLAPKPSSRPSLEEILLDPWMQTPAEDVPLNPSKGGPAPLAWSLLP
Test [11] has as its target T3, Serine/threonine-protein kinase 4 (Homo sapiens) (UniProt Q13043).
T3 sequence (whole entry): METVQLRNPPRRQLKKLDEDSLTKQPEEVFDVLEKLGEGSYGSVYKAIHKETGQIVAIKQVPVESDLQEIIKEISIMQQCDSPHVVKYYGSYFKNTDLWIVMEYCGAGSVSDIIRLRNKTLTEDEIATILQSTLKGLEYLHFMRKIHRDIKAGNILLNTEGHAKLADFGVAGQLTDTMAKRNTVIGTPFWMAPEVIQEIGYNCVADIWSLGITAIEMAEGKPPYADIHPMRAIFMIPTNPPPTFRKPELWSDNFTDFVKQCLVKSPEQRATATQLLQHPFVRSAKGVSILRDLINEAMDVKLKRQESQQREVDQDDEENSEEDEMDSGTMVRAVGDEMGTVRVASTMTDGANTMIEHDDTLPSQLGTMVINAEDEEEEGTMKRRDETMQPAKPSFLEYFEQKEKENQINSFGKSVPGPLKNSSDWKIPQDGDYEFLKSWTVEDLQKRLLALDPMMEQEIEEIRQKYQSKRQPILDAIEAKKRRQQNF

For test [12], the target named is Serine/threonine-protein kinase 38 (Homo sapiens) (UniProt Q15208).
Serine/threonine-protein kinase 38 (Homo sapiens), sequence (Q15208 2-465 limits assumed): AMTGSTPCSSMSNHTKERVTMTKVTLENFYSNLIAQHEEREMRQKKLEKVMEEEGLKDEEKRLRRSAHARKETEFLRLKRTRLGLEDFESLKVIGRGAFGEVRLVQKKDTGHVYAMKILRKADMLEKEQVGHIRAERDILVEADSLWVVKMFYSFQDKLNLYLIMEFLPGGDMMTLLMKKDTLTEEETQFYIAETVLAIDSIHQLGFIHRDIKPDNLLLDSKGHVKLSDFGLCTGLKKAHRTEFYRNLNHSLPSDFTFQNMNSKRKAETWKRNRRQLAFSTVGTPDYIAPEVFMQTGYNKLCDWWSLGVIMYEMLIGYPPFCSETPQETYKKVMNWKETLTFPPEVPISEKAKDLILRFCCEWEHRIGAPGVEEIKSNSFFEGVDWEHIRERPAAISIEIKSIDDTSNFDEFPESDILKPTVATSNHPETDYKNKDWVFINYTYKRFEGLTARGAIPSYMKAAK
The target in test [13] is Mitogen-activated protein kinase 11 (Homo sapiens, UniProt Q15759).
Mitogen-activated protein kinase 11, sequence (Q15759 whole entry): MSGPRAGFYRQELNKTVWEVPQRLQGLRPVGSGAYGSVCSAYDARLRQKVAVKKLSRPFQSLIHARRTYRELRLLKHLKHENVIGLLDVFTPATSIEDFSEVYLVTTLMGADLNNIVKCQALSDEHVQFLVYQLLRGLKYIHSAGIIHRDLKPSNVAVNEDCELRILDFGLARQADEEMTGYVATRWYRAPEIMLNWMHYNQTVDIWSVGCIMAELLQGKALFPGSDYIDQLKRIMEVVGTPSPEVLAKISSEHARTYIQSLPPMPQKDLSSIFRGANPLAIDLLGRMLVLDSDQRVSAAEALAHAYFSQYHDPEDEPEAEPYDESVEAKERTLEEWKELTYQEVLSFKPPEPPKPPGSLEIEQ
For test [14], the target named is T4, Serine/threonine-protein kinase Nek2 (Homo sapiens) (UniProt P51955).
T4 sequence (whole entry): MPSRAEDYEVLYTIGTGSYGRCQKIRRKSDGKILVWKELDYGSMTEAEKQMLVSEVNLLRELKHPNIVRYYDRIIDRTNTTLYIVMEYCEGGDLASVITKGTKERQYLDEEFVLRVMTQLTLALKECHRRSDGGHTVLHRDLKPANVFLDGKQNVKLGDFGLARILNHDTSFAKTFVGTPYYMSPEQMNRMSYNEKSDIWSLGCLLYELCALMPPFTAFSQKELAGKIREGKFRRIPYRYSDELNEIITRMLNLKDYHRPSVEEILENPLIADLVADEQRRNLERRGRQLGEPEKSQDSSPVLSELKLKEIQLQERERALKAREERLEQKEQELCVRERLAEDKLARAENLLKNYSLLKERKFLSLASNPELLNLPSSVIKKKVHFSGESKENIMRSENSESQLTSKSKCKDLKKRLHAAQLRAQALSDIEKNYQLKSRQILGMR

The target in test [15] is Calcium/calmodulin-dependent protein kinase type 1D (Homo sapiens) (UniProt Q8IU85).
For test [16], the target named is Serine/threonine-protein kinase PAK 6 (Homo sapiens) (UniProt Q9NQU5).
Test [17] addresses TRAF2 and NCK-interacting protein kinase (Homo sapiens) (UniProt Q9UKE5).
Test [18] has as its target Serine/threonine-protein kinase pim-1 (Homo sapiens) (UniProt P11309).
Test [19] deals with Cyclin-dependent kinase 2 (Homo sapiens, UniProt P24941).
The target in test [20] is Dual specificity mitogen-activated protein kinase kinase 2 (Homo sapiens, UniProt P36507).

TRAF2 and NCK-interacting protein kinase (Homo sapiens), sequence (Q9UKE5 whole entry, looked up): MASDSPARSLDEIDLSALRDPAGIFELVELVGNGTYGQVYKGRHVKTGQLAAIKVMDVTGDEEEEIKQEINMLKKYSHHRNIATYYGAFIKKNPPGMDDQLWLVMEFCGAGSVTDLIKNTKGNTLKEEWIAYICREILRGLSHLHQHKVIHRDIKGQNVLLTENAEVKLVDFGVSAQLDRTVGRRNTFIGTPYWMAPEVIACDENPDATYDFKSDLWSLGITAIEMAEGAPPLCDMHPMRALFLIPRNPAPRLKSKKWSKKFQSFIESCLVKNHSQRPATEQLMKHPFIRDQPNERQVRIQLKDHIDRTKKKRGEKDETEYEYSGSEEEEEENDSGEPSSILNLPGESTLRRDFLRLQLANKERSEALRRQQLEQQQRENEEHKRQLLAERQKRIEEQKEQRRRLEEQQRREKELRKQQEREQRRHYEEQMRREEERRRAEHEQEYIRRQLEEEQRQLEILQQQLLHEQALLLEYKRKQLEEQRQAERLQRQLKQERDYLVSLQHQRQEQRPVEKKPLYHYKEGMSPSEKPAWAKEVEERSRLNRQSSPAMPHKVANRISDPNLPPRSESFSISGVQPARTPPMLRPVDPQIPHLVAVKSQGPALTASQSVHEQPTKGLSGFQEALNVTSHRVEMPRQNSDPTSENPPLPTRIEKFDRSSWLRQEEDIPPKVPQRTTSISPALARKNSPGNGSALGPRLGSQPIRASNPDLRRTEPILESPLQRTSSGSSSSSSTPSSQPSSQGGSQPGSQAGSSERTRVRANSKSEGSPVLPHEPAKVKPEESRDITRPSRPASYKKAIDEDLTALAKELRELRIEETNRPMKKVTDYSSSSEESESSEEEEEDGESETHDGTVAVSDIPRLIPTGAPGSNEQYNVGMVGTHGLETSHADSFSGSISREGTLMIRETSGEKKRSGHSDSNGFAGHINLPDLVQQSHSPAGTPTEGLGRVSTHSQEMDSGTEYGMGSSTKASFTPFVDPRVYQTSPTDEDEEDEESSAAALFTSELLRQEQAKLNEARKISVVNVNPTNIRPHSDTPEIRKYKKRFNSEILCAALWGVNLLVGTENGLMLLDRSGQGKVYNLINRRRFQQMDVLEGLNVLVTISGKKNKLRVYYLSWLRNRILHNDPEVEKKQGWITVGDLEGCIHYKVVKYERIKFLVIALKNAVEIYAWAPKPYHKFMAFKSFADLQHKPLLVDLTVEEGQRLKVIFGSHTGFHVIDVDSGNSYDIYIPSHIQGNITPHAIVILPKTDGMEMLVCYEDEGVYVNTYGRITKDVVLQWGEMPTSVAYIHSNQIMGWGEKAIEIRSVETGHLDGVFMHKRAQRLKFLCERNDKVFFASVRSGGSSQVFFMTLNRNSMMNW
Serine/threonine-protein kinase RIO2 (Homo sapiens), sequence (Q9BVS4 whole entry, looked up): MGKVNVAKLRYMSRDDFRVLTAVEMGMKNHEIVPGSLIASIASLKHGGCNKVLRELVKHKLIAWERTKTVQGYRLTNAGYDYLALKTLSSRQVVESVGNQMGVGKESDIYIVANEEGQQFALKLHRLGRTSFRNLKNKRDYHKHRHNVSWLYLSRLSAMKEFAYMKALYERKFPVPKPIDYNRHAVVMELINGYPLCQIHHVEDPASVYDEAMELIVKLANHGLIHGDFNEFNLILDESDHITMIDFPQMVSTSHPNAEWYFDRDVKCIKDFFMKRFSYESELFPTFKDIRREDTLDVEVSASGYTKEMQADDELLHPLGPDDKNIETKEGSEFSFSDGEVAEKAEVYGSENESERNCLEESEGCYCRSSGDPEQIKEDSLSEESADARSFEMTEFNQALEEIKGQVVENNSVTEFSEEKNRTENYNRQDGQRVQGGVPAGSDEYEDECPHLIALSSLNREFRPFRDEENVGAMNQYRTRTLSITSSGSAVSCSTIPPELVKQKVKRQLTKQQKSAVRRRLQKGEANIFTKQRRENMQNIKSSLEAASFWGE
Mitogen-activated protein kinase 3, sequence (P27361 whole entry): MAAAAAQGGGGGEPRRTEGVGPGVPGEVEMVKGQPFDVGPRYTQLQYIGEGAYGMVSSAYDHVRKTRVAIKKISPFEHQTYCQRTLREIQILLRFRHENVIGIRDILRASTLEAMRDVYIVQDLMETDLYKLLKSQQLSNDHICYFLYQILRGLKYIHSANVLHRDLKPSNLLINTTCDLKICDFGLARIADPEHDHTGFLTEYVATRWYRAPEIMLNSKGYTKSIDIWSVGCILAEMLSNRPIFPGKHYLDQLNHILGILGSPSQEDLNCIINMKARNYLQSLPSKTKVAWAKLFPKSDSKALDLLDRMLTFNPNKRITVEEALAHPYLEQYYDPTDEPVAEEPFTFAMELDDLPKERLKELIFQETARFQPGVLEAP
Serine/threonine-protein kinase 10 (Homo sapiens), sequence (O94804 whole entry, looked up): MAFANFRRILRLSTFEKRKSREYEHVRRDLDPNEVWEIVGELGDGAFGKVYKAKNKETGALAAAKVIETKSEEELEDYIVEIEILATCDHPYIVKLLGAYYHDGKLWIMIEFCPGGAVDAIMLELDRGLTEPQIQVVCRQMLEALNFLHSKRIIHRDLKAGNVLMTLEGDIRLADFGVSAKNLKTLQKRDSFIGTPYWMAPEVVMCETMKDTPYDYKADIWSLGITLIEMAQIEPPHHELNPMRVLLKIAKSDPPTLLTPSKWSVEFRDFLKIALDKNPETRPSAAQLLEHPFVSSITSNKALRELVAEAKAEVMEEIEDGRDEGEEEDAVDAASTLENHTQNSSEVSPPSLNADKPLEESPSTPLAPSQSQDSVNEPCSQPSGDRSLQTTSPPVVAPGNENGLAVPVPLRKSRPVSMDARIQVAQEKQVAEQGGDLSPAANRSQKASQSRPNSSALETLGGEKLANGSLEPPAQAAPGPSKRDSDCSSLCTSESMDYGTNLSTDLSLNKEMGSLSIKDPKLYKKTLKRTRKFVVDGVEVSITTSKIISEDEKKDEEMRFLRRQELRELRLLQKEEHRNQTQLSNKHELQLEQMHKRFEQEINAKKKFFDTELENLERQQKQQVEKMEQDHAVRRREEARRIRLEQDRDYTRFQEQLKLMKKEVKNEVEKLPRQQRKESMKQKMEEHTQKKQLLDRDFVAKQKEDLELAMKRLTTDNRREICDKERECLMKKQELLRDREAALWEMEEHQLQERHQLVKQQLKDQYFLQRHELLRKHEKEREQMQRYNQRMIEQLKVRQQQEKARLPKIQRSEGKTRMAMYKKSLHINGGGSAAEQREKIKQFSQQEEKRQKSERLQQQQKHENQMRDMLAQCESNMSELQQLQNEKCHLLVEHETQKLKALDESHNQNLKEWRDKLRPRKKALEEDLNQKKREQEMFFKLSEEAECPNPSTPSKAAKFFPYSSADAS

With `O=c1c(O)c(-c2ccc(O)c(O)c2)oc2cc(O)cc(O)c12` [QUERCETIN], the shift in melting temperature (ΔTm) in test [1] was 4.9 °C; in [2], 4.8 °C; in [3], 5.5 °C; in test [4], 8.1 °C; in test [5], 1.9 °C; in [6], 4.2 °C. The ΔTm in [7] is -0.2 °C; in test [8] it was 6.7 °C; in test [9] it was 5.7 °C; in test [10], 8.6 °C; in test [11], 5.4 °C; in test [12] it was 3.2 °C. Moreover, the ΔTm was determined as 2.2 °C in test [13]; 3.4 °C in [14]; 2.9 °C in test [15]; 1.1 °C in test [16]; 3.3 °C in test [17]; 8.1 °C in [18]. In addition, the ΔTm in [19] was 5.3 °C; in [20], 2.4 °C.

The record behind these values is ChEMBL document CHEMBL1145498, “A systematic interaction map of validated kinase inhibitors with Ser/Thr kinases” (Proc Natl Acad Sci U S A, 2007).
